# Source: patent publication US7375136B2, “pH-dependent NMDA receptor antagonists” (Emory University, priority 2001, dated 2008)
# Like-named read-outs stand apart in the source and are kept apart here.
# Key:
# NR1-1a/NR2B receptors = NR1-1a/NR2B receptors (Homo sapiens, UniProt Q05586+Q13224); test: Two electrode voltage clamp of Xenopus oocytes expressing NR1-1a and NR2B NMDA receptor subunits; inhibition of glutamate/glycine current at pH 6.9 and 7.6; type: cell-based; settings: for Fold increase in potency between pH 7.6 and 6.9: IC50 at pH 7.6/IC50 at pH 6.9
# Sequence of NR1-1a/NR2B receptors (Q13224 27-1484, other chains not shown): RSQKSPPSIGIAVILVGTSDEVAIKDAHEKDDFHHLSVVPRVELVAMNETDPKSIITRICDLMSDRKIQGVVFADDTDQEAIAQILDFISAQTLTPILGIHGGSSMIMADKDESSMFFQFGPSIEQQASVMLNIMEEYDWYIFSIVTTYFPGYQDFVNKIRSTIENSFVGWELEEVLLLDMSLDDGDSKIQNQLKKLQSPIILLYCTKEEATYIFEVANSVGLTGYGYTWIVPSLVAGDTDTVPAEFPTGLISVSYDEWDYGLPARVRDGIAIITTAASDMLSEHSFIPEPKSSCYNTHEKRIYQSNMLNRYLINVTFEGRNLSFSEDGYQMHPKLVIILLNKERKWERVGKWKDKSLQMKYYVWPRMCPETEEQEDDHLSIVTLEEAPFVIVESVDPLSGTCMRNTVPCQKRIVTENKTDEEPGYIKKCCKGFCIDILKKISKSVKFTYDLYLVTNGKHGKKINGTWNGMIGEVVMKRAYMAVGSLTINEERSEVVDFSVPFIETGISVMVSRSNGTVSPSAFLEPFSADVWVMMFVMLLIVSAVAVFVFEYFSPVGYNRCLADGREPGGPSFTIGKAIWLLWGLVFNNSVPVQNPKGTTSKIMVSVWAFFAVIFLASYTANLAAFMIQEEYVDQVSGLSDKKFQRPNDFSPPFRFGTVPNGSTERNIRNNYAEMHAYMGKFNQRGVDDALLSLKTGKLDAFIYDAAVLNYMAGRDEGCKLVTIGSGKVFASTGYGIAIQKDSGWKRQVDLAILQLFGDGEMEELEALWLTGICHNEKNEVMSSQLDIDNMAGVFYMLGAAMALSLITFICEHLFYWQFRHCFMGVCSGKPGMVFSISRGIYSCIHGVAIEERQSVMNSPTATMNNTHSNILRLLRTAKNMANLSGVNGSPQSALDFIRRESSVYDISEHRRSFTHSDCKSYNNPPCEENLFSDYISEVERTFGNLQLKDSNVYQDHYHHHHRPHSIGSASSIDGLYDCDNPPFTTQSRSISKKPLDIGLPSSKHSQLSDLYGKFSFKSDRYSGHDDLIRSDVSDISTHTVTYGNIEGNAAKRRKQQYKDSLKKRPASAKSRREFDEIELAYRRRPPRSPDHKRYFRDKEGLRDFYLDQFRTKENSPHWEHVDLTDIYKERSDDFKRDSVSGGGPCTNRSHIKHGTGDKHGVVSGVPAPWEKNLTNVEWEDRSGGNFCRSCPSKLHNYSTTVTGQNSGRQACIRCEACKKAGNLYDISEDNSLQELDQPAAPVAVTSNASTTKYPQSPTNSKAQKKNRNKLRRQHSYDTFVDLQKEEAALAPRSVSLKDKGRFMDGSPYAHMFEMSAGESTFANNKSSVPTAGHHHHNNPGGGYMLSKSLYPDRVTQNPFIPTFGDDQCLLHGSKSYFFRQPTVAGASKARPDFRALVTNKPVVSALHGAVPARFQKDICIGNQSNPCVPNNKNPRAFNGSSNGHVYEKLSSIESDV
# Description: Current recordings were obtained using two electrode voltage clamp of Xenopus oocytes injected with cRNA encoding the NR1-1a and NR2B NMDA receptor subunits. Cells were injected with 5-15 ng of cRNA encoding NR1-1a in combination with a 2-3 fold greater amount of either NR2B cRNA. Injected oocytes were maintained at 17° C. in Barths solution containing penicillin (10 U/ml) and streptomycin (10 μg/ml) for 2-6 days, after which recordings were made at room temperature from oocytes continuously perfused in a standard frog Ringers solution. This solution was composed of (in mM): 90 NaCl, 1.0 KCl, 10 Hepes and 0.5 BaCl2. Recording pipettes were filled with 0.3M KCl. Saturating concentrations of glutamate (20-50 μM) and glycine (20 μM) were used to activate the receptor. Drugs were prepared daily from frozen stock solutions in DMSO. Glutamate/glycine-activated currents were typically elicited from a holding potential of −20 to −40 mV. Current signals were digitized and analyzed using custom acquisition software. To study the effects of pH, oocytes were perfused with Ringer's solution at the desired pH until a stable baseline had been reached before subsequent agonist application.
# Oocytes in which the glutamate/glycine current was not stable or in which the baseline holding current drifted were discarded. Inhibition of the glutamate/glycine current by drugs was examined by applying 1-4 different concentrations of the antagonist to each oocyte. […] On average recordings were made from 14 oocytes per condition.
# Male Sprague-Dawley rats = test: Maximal electroshock seizures, duration of tonic hindlimb extension (THE); type: in vivo; settings: for Anticonvulsive effects: rat maximal electroshock, summary in words; for THE in drug (% control): rat, mean ± sem
# Description: Methods: Male Sprague-Dawley rats weighing less than 150 gm were used for these experiments. Maximal electroshock seizures were produced by delivering 200 ms biphasic square-wave pulses of 200 mA at 60 Hz via corneal electrodes, using a Wahlquist Constant Current Source (Salt Lake City, Utah). A drop of 0.9% lidocaine in saline was applied to each cornea 30 s before stimulus delivery to minimize pain. Automatic timers recorded the durations of tonic hindlimb flexion, tonic hindlimb extension (THE), clonus and flaccidity that sequentially followed stimulus delivery. The duration of THE was used as an index of seizure severity. Animals were stimulated on three consecutive days, referred to as “control”, “test”, and “recovery”. […] On “test” day, each animal received either vehicle or drug at varying intervals prior to stimulation. Reversibility of drug effect on THE was ascertained by response to stimulation administered one day after the “test” session. The values shown in the table are the mean (±sem) THE duration in the test condition, as a percentage of the mean of control and recovery conditions. Four rats were used for each time point.
# P<0.001 for difference from vehicle by one-way ANOVA with Dunnett's post hoc test. For all other conditions P>0.05.
# [1] = Table A, pH 6.9, NR1-1a/NR2B in Xenopus oocytes, read-out: IC50 at pH 6.9
# [2] = Table B, pH 6.9, NR1-1a/NR2B in Xenopus oocytes, read-out: IC50 at pH 6.9
# [3] = Table D, pH 6.9, NR1-1a/NR2B in Xenopus oocytes, read-out: IC50 at pH 6.9
# [4] = 30 mg/kg, 15 min from drug injection to electroshock
# [5] = 30 mg/kg, 60 min from drug injection to electroshock
# [6] = 30 mg/kg, 30 min from drug injection to electroshock
smiles,measurement,setting,value
"CCN(CCc1ccc(Cl)c(Cl)c1)C[C@H](O)COc1ccc(NS(C)(=O)=O)cc1 [93-5 (S), (S)-1-(4-Methanesulphonamidephenoxy)-3-(N-ethyl-3,4-dichloro-phenylethylamino)-2-propanol]",Fold increase in potency between pH 7.6 and 6.9,NR1-1a/NR2B receptors; Table A,8.00
same,IC50,NR1-1a/NR2B receptors; [1],0.02 µM
same,Fold increase in potency between pH 7.6 and 6.9,NR1-1a/NR2B receptors; Table C,8.00
"CC(=O)OC(COc1ccc(NS(C)(=O)=O)cc1)CN(CCc1ccc(Cl)c(Cl)c1)C(C)=O [93-28 (S), 1-(4-Methanesulphonamidophenoxy)-3-(N-acetyl-3,4-dichloro-phenylethylamino)-2-propyl acetate]",Fold increase in potency between pH 7.6 and 6.9,NR1-1a/NR2B receptors; Table A,11.1
same,IC50,NR1-1a/NR2B receptors; [1],1.64 µM
"CS(=O)(=O)Nc1ccc(OC[C@@H](O)CN(CCc2ccc(Cl)c(Cl)c2)Cc2ccccc2)cc1 [93-30 (S), (S)-1-(4-Methanesulphonamidephenoxy)-3-(N-benzyl-3,4-dichloro-phenylethylamino)-2-propanol]",Fold increase in potency between pH 7.6 and 6.9,NR1-1a/NR2B receptors; Table A,16.8
same,IC50,NR1-1a/NR2B receptors; [1],0.07 µM
same,Fold increase in potency between pH 7.6 and 6.9,NR1-1a/NR2B receptors; Table C,16.8
"CS(=O)(=O)Nc1ccc(OC[C@@H](O)CN(CCc2ccc(Cl)c(Cl)c2)Cc2cccc(F)c2)cc1 [93-34 (S), (S)-1-(4-Methanesulphonamidephenoxy)-3-(N-(3-fluorobenzyl)-3,4-dichlorophenylethylamino)-2-propanol]",Fold increase in potency between pH 7.6 and 6.9,NR1-1a/NR2B receptors; Table B,4.62
same,IC50,NR1-1a/NR2B receptors; [2],0.21 µM
"CS(=O)(=O)Nc1ccc(OC[C@@H](O)CNCCc2ccc(Cl)c(Cl)c2)cc1.Cl [93-4 (S), (S)-1-(4-methanesulfonamideophenoxy)-3-(3,4-dichlorophenylethylamine)-2-propanol hydrochloride]",Fold increase in potency between pH 7.6 and 6.9,NR1-1a/NR2B receptors; Table B,3.54
same,IC50,NR1-1a/NR2B receptors; [2],0.026 µM
same,Fold increase in potency between pH 7.6 and 6.9,NR1-1a/NR2B receptors; Table C,3.54
same,Fold increase in potency between pH 7.6 and 6.9,NR1-1a/NR2B receptors; Table D,3.54
same,IC50,NR1-1a/NR2B receptors; [3],0.026 µM
same,Anticonvulsive effects,Male Sprague-Dawley rats,Anticonvulsive effects
same,THE in drug (% control),"Male Sprague-Dawley rats; 3 mg/kg, 15 min from drug injection to electroshock",91.1 ± 2.7 % control
same,THE in drug (% control),"Male Sprague-Dawley rats; 3 mg/kg, 60 min from drug injection to electroshock",109 ± 11.5 % control
same,THE in drug (% control),Male Sprague-Dawley rats; [4],66.6 ± 12.5 % control
same,THE in drug (% control),Male Sprague-Dawley rats; [5],30.8 ± 12.1 % control
"O=S(=O)(Nc1ccc(OCC(O)CNCCc2ccc(Cl)c(Cl)c2)cc1)c1ccccc1 [93-29 (S), 1-(4-benzenesulphonamidophenoxy)-3-(3,4-dichloro-phenylethyl-amino)-2-propanol]",IC50,NR1-1a/NR2B receptors,1.16 µM
same,Fold increase in potency between pH 7.6 and 6.9,NR1-1a/NR2B receptors; Table A,18.0
same,Fold increase in potency between pH 7.6 and 6.9,NR1-1a/NR2B receptors; Table D,18.02
"CS(=O)(=O)Nc1ccc(OC[C@@H](O)CN(CCc2ccc(Cl)c(Cl)c2)Cc2ccccc2F)cc1 [93-35 (S), (S)-1-(4-Methanesulphonamidephenoxy)-3-(N-(2-fluorobenzyl)-3,4-dichlorophenylethylamino)-2-propanol]",Fold increase in potency between pH 7.6 and 6.9,NR1-1a/NR2B receptors; Table B,3.60
same,IC50,NR1-1a/NR2B receptors; [2],0.048 µM
"CCCN(CCc1ccc(Cl)c(Cl)c1)C[C@H](O)COc1ccc(NS(C)(=O)=O)cc1 [93-6 (S), (S)-1-(4-Methanesulphonamidephenoxy)3-(N-propyl-3,4-dichloro-phenylethylamino)-2-propanol]",Fold increase in potency between pH 7.6 and 6.9,NR1-1a/NR2B receptors; Table A,6.54
same,IC50,NR1-1a/NR2B receptors; [1],0.111 µM
same,Fold increase in potency between pH 7.6 and 6.9,NR1-1a/NR2B receptors; Table C,6.54
"CS(=O)(=O)Nc1ccc(OC[C@@H](O)CN(CCc2ccc(Cl)c(Cl)c2)Cc2ccc(F)cc2)cc1 [93-33 (S), (S)-1-(4-Methanesulphonamidephenoxy)-3-(N-(4-fluorobenzyl)-3,4-dichlorophenylethylamino)-2-propanol]",Fold increase in potency between pH 7.6 and 6.9,NR1-1a/NR2B receptors; Table B,0.810
same,IC50,NR1-1a/NR2B receptors; [2],0.52 µM
"CCCCN(CCc1ccc(Cl)c(Cl)c1)C[C@H](O)COc1ccc(NS(C)(=O)=O)cc1 [93-31 (S), (S)-1-(4-Methanesulphonamidephenoxy)-3-(N-butyl-3,4-dichloro-phenylethylamino)-2-propanol]",Fold increase in potency between pH 7.6 and 6.9,NR1-1a/NR2B receptors; Table A,51.2
same,IC50,NR1-1a/NR2B receptors; [1],0.058 µM
same,Fold increase in potency between pH 7.6 and 6.9,NR1-1a/NR2B receptors; Table C,51.2
"CN(CCc1ccc(Cl)c(Cl)c1)C[C@H](O)COc1ccc(NS(C)(=O)=O)cc1 [93-2 (S), (S)-1-(4-Methanesulphonamidephenoxy)3-(N-methyl-3,4-dichloro-phenylethylamino)-2-propanol]",Fold increase in potency between pH 7.6 and 6.9,NR1-1a/NR2B receptors; Table A,5.87
same,IC50,NR1-1a/NR2B receptors; [1],0.063 µM
same,Fold increase in potency between pH 7.6 and 6.9,NR1-1a/NR2B receptors; Table C,5.87
"CN(c1ccc(OC[C@@H](O)CNCCc2ccc(Cl)c(Cl)c2)cc1)S(C)(=O)=O [93-7 (S), (S)-1-(4-N-methyl-methanesulphonamidephenoxy)-3-(3,4-dichloro-phenylethylamino)-2-propanol]",IC50,NR1-1a/NR2B receptors,2.33 µM
same,Fold increase in potency between pH 7.6 and 6.9,NR1-1a/NR2B receptors; Table D,5.51
OC(CNCCc1ccc(Cl)c(Cl)c1)COc1ccc(OC(F)(F)F)cc1 (racemic) [Compound 93-16],Fold increase in potency between pH 7.6 and 6.9,NR1-1a/NR2B receptors; Table D,4.82
same,IC50,NR1-1a/NR2B receptors; [3],11.2 µM
"O=[N+]([O-])c1ccc(OC[C@@H](O)CNCCc2ccc(Cl)c(Cl)c2)cc1 [93-10 (S), (S)-1-(4-Nitrophenoxy)3-(3,4-dichlorophenylethylamino)-2propanol]",IC50,NR1-1a/NR2B receptors,12.1 µM
same,Fold increase in potency between pH 7.6 and 6.9,NR1-1a/NR2B receptors; Table D,1.60
"CS(=O)(=O)Nc1cccc(OC[C@@H](O)CNCCc2ccc(Cl)c(Cl)c2)c1 [93-9 (S), (S)-1-(3-Methanesulphonamidephenoxy)3-(3,4-dichlorophenylcthyl-amino)-2-propanol]",IC50,NR1-1a/NR2B receptors,0.208 µM
same,Fold increase in potency between pH 7.6 and 6.9,NR1-1a/NR2B receptors; Table D,8.19
"CS(=O)(=O)Nc1ccccc1OC[C@@H](O)CNCCc1ccc(Cl)c(Cl)c1 [93-32 (S), 1-(2-Methanesulphonamidephenoxy)-3-(3,4-dichlorophenylethylamino)-2-propanol]",IC50,NR1-1a/NR2B receptors,17.9 µM
"CN(CCc1ccc(Cl)c(Cl)c1)CC(O)COc1ccc(NS(C)(=O)=O)cc1.Cl (racemic) [Compound 93, (R,S) 1-(4-methanesulfonamidophenoxy)-3-(N-methyl-3,4-dichlorophenylethylamine)-2-propanol hydrochloride, reference compound]",Anticonvulsive effects,Male Sprague-Dawley rats,Anticonvulsive effects
same,THE in drug (% control),"Male Sprague-Dawley rats; 10 mg/kg, 15 min from drug injection to electroshock",78.2 ± 4.5 % control
same,THE in drug (% control),"Male Sprague-Dawley rats; 10 mg/kg, 30 min from drug injection to electroshock",58.5 ± 11.3 % control
same,THE in drug (% control),"Male Sprague-Dawley rats; 10 mg/kg, 60 min from drug injection to electroshock",62.4 ± 3.9 % control
same,THE in drug (% control),"Male Sprague-Dawley rats; 30 mg/kg, 240 min from drug injection to electroshock",96.2 ± 1.7 % control
"CS(=O)(=O)Nc1ccc(OCC2CN(CCc3ccc(Cl)c(Cl)c3)C(=O)O2)cc1 [93-27 (S), N-(3,4-dichlorophenyl)ethyl-5-(4-methanesulphonamidophenoxy) methyl-oxazolidine-2-one]",Fold increase in potency between pH 7.6 and 6.9,NR1-1a/NR2B receptors; Table B,0.95
same,IC50,NR1-1a/NR2B receptors; [2],0.338 µM
same,Fold increase in potency between pH 7.6 and 6.9,NR1-1a/NR2B receptors; Table C,0.954
same,THE in drug (% control),Male Sprague-Dawley rats; [4],97.0 ± 0.6 % control
same,THE in drug (% control),Male Sprague-Dawley rats; [6],95.6 ± 1.3 % control
same,THE in drug (% control),Male Sprague-Dawley rats; [5],89.7 ± 0.8 % control
"NC(=O)N1c2ccccc2C=Cc2ccccc21 [Carbamazepine, reference compound]",THE in drug (% control),"Male Sprague-Dawley rats; 40 mg/kg, 30 min from drug injection to electroshock",0.0 ± 0.0 % control
"C[C@@H](CN1CCC(Cc2ccccc2)CC1)[C@@H](O)c1ccc(O)cc1 [Ro256981, reference compound]",Fold increase in potency between pH 7.6 and 6.9,NR1-1a/NR2B receptors; Table B,0.444
same,IC50,NR1-1a/NR2B receptors; [2],0.018 µM
"CS(=O)(=O)Nc1ccc(OC[C@@H](O)CN(CCO)CCc2ccc(Cl)c(Cl)c2)cc1 [93-8 (S), (S)-1-(4-methanesulphonamidephenoxy)-e-(N-(2-hydroxyethyl)-3,4-dichlorophenylethylamino)-2-propanol]",Fold increase in potency between pH 7.6 and 6.9,NR1-1a/NR2B receptors; Table A,11.3
same,IC50,NR1-1a/NR2B receptors; [1],0.029 µM
same,Fold increase in potency between pH 7.6 and 6.9,NR1-1a/NR2B receptors; Table C,11.3
same,Anticonvulsive effects,Male Sprague-Dawley rats,Anticonvulsive effects
same,THE in drug (% control),Male Sprague-Dawley rats; [4],91.9 ± 0.4 % control
same,THE in drug (% control),Male Sprague-Dawley rats; [6],85.7 ± 2.8 % control
same,THE in drug (% control),Male Sprague-Dawley rats; [5],59.3 ± 4.1 % control
